Results: patent US20240132484A1, “BROAD SPECTRUM ANTIVIRAL COMPOUNDS TARGETING THE SKI COMPLEX” (priority 2020, published 2024)
“And” between values parts separate entries of the source, which are not always exact repeats. Identical values can stand only once. Like-named read-outs stand apart in the source and are kept apart here.

Tests used:
SARS2 = type: cell-based, SARS-CoV-2; conditions: for Percentage Inhibition Average 1 μM / Screening data (Relative infection to DMSO controls) Average 1 μM: SARS2, 1 μM; for Screening data (Relative infection to DMSO controls) Average 1 μM / Screening data (Relative infection to DMSO controls) Average 5 μM / Screening data (Relative infection to DMSO controls) Average 10 μM / Screening data (Relative infection to DMSO controls) Average 25 μM / Screening data (Relative infection to DMSO controls) Average 50 μM / Average (relative infection to DMSO over the 5 tested concentrations): 100=DMSO control; for Percentage Inhibition Average 5 μM / Screening data (Relative infection to DMSO controls) Average 5 μM: SARS2, 5 μM; for Percentage Inhibition Average 10 μM / Screening data (Relative infection to DMSO controls) Average 10 μM: SARS2, 10 μM; for Percentage Inhibition Average 25 μM / Screening data (Relative infection to DMSO controls) Average 25 μM: SARS2, 25 μM; for Percentage Inhibition Average 50 μM / Screening data (Relative infection to DMSO controls) Average 50 μM: SARS2, 50 μM; for Average (relative infection to DMSO over the 5 tested concentrations): SARS2, average over 1 to 50 uM; for Infection Data, Average, Mean: average of Exp 1-3 (SMW475, SMW477, SMW478)
cells (nuclei count) = conditions: for Relative cell count to DMSO controls, Average 1 μM / Relative cell count to DMSO controls, Average 5 μM / Relative cell count to DMSO controls, Average 10 μM / Relative cell count to DMSO controls, Average 25 μM / Relative cell count to DMSO controls, Average 50 μM: toxicity data, 100=DMSO control; for Toxicity Data, Average, Mean: average of Exp 1-3 (SMW475, SMW477, SMW478); for Relative cell count to DMSO controls, Average (for correlation analysis): average value over the 5 tested concentrations (1 to 50 uM)
[1] = Exp 1 (SMW475), 10 uM, single well
[2] = Exp 1 (SMW475), 25 uM, single well
[3] = Exp 1 (SMW475), 50 uM, single well
[4] = Exp 2 (SMW477), 1 uM, single well
[5] = Exp 2 (SMW477), 5 uM, single well
[6] = Exp 2 (SMW477), 10 uM, single well
[7] = Exp 2 (SMW477), 50 uM, single well
[8] = Exp 3 (SMW478), 1 uM, Greiner Celigo plates
[9] = Exp 3 (SMW478), 5 uM, Greiner Celigo plates
[10] = Exp 3 (SMW478), 10 uM, Greiner Celigo plates

With `COC(=O)c1csc(CN(CCN(C)C)Cc2cccs2)c1` [SILCS29] the “Percentage Infection Relative to Appropriate DMSO Control with Avg Background Subtraction” value (SARS2; Exp 1 (SMW475), 5 uM, single well) was 1.25% and −0.49% and 2.25%, the “Percentage Infection Relative to Appropriate DMSO Control with Avg Background Subtraction” value (SARS2; [1]) was 57.43% and 82.75% and 79.22% and the “Percentage Infection Relative to Appropriate DMSO Control with Avg Background Subtraction” value (SARS2; [2]) was 13.47% and 21.51% and 26.64%. For the same molecule, the “Percentage Infection Relative to Appropriate DMSO Control with Avg Background Subtraction” value (SARS2; [3]) was 13.24% and 10.68% and 10.82%, the “Percentage Infection Relative to Appropriate DMSO Control with Avg Background Subtraction” value (SARS2; [4]) was 96.79% and 118.82% and 112.77% and the “Percentage Infection Relative to Appropriate DMSO Control with Avg Background Subtraction” value (SARS2; [5]) was 84.54% and 117.80% and 116.09%. The “Percentage Infection Relative to Appropriate DMSO Control with Avg Background Subtraction” value (SARS2; [6]) was 78.23% and 124.37% and 115.30%, the “Percentage Infection Relative to Appropriate DMSO Control with Avg Background Subtraction” value (SARS2; [7]) was 2.61% and 6.87% and 8.07% and the “Percentage Infection Relative to Appropriate DMSO Control with Avg Background Subtraction” value (SARS2; [8]) was 97.82% and 84.39% and 100.08%. For the same molecule, the “Percentage Infection Relative to Appropriate DMSO Control with Avg Background Subtraction” value (SARS2; [9]) was 95.72% and 88.47% and 77.81%, the “Percentage Infection Relative to Appropriate DMSO Control with Avg Background Subtraction” value (SARS2; [10]) was 99.71% and 91.75% and 106.45% and the “Percentage Infection Relative to Appropriate DMSO Control with Avg Background Subtraction” value (SARS2; Exp 3 (SMW478), 50 uM, Greiner Celigo plates) was 6.88% and −1.19% and −1.09%. For the same molecule, the “Percentage Inhibition Average 1 μM” value (SARS2) was 15.78%, the “Screening data (Relative infection to DMSO controls) Average 1 μM” value (SARS2) was 84.22 and the “Percentage Inhibition Average 5 μM” value (SARS2) was 35.17%. For the same molecule, the “Screening data (Relative infection to DMSO controls) Average 5 μM” value (SARS2) was 64.83, the “Percentage Inhibition Average 10 μM” value (SARS2) was 7.20% and the “Screening data (Relative infection to DMSO controls) Average 10 μM” value (SARS2) was 92.80. For the same molecule, the “Percentage Inhibition Average 25 μM” value (SARS2) was 67.28%, the “Screening data (Relative infection to DMSO controls) Average 25 μM” value (SARS2) was 32.72 and the “Percentage Inhibition Average 50 μM” value (SARS2) was 93.68%. For the same molecule, the “Screening data (Relative infection to DMSO controls) Average 50 μM” value (SARS2) was 6.32, the “Average (relative infection to DMSO over the 5 tested concentrations)” value (SARS2) was 56.18 and the “Infection Data, Average, Mean” value (SARS2; n 9, 1 uM) was 84.22%. The “Infection Data, Average, Mean” value (SARS2; n 9, 5 uM) was 64.83%, the “Infection Data, Average, Mean” value (SARS2; n 9, 10 uM) was 92.80% and the “Infection Data, Average, Mean” value (SARS2; n 9, 25 uM) was 32.72%. For the same molecule, the “Infection Data, Average, Mean” value (SARS2; n 9, 50 uM) was 6.32%, the “Relative cell count to DMSO controls, Average 1 μM” value (cells (nuclei count)) was 104.12 and the “Relative cell count to DMSO controls, Average 5 μM” value (cells (nuclei count)) was 110.81. The “Relative cell count to DMSO controls, Average 10 μM” value (cells (nuclei count)) was 90.99, the “Relative cell count to DMSO controls, Average 25 μM” value (cells (nuclei count)) was 101.15 and the “Relative cell count to DMSO controls, Average 50 μM” value (cells (nuclei count)) was 67.81. For the same molecule, the “Toxicity Data, Average, Mean” value (cells (nuclei count); n 9, 1 uM) was 104.12%, the “Toxicity Data, Average, Mean” value (cells (nuclei count); n 9, 5 uM) was 110.81% and the “Toxicity Data, Average, Mean” value (cells (nuclei count); n 9, 10 uM) was 90.99%. For the same molecule, the “Toxicity Data, Average, Mean” value (cells (nuclei count); n 9, 25 uM) was 101.15%, the “Toxicity Data, Average, Mean” value (cells (nuclei count); n 9, 50 uM) was 67.81% and the “Relative cell count to DMSO controls, Average (for correlation analysis)” value (cells (nuclei count)) was 94.98.

With `COC(=O)c1csc(CN(CCN(C)C)Cc2ccccc2)c1` [SILCS30] the “SARS2 antiviral activity” value (SARS2) was “decrease in activity”, the “Percentage Infection Relative to Appropriate DMSO Control with Avg Background Subtraction” value (SARS2; Exp 1 (SMW475), 1 uM, single well) was 105.27% and 104.72% and 85.58% and the “Percentage Infection Relative to Appropriate DMSO Control with Avg Background Subtraction” value (SARS2; [1]) was 111.40% and 92.91% and 108.37%. For the same molecule, the “Percentage Infection Relative to Appropriate DMSO Control with Avg Background Subtraction” value (SARS2; [2]) was 63.92% and 51.24% and 55.41%, the “Percentage Infection Relative to Appropriate DMSO Control with Avg Background Subtraction” value (SARS2; [3]) was 32.13% and 25.36% and 23.71% and the “Percentage Infection Relative to Appropriate DMSO Control with Avg Background Subtraction” value (SARS2; [4]) was 113.51% and 96.27% and 114.57%. The “Percentage Infection Relative to Appropriate DMSO Control with Avg Background Subtraction” value (SARS2; [5]) was 117.23% and 99.87% and 114.31%, the “Percentage Infection Relative to Appropriate DMSO Control with Avg Background Subtraction” value (SARS2; [6]) was 121.60% and 100.99% and 139.28% and the “Percentage Infection Relative to Appropriate DMSO Control with Avg Background Subtraction” value (SARS2; Exp 2 (SMW477), 25 uM, single well) was 71.18% and 69.34% and 78.15%. The “Percentage Infection Relative to Appropriate DMSO Control with Avg Background Subtraction” value (SARS2; [7]) was 17.82% and 25.00% and 26.06%, the “Percentage Infection Relative to Appropriate DMSO Control with Avg Background Subtraction” value (SARS2; [8]) was 81.75% and 100.71% and 99.49% and the “Percentage Infection Relative to Appropriate DMSO Control with Avg Background Subtraction” value (SARS2; [9]) was 89.39% and 93.72% and 82.15%. For the same molecule, the “Percentage Infection Relative to Appropriate DMSO Control with Avg Background Subtraction” value (SARS2; [10]) was 73.78% and 69.60% and 68.94%, the “Percentage Infection Relative to Appropriate DMSO Control with Avg Background Subtraction” value (SARS2; Exp 3 (SMW478), 25 uM, Greiner Celigo plates) was 79.03% and 71.83% and 64.72% and the “Percentage Inhibition Average 1 μM” value (SARS2) was −0.21%. The “Screening data (Relative infection to DMSO controls) Average 1 μM” value (SARS2) was 100.21, the “Percentage Inhibition Average 5 μM” value (SARS2) was 15.19% and the “Screening data (Relative infection to DMSO controls) Average 5 μM” value (SARS2) was 84.81. For the same molecule, the “Percentage Inhibition Average 10 μM” value (SARS2) was 1.46%, the “Screening data (Relative infection to DMSO controls) Average 10 μM” value (SARS2) was 98.54 and the “Percentage Inhibition Average 25 μM” value (SARS2) was 32.80%. The “Screening data (Relative infection to DMSO controls) Average 25 μM” value (SARS2) was 67.20, the “Percentage Inhibition Average 50 μM” value (SARS2) was 75.16% and the “Screening data (Relative infection to DMSO controls) Average 50 μM” value (SARS2) was 24.84. The “Average (relative infection to DMSO over the 5 tested concentrations)” value (SARS2) was 75.12, the “Infection Data, Average, Mean” value (SARS2; n 9, 1 uM) was 100.21% and the “Infection Data, Average, Mean” value (SARS2; n 9, 5 uM) was 84.81%. For the same molecule, the “Infection Data, Average, Mean” value (SARS2; n 9, 10 uM) was 98.54%, the “Infection Data, Average, Mean” value (SARS2; n 9, 25 uM) was 67.20% and the “Infection Data, Average, Mean” value (SARS2; n 9, 50 uM) was 24.84%. For the same molecule, the “Relative cell count to DMSO controls, Average 1 μM” value (cells (nuclei count)) was 108.24, the “Relative cell count to DMSO controls, Average 5 μM” value (cells (nuclei count)) was 110.62 and the “Relative cell count to DMSO controls, Average 10 μM” value (cells (nuclei count)) was 102.59. For the same molecule, the “Relative cell count to DMSO controls, Average 25 μM” value (cells (nuclei count)) was 104.38, the “Relative cell count to DMSO controls, Average 50 μM” value (cells (nuclei count)) was 86.57 and the “Toxicity Data, Average, Mean” value (cells (nuclei count); n 9, 1 uM) was 108.24%. For the same molecule, the “Toxicity Data, Average, Mean” value (cells (nuclei count); n 9, 5 uM) was 110.62%, the “Toxicity Data, Average, Mean” value (cells (nuclei count); n 9, 10 uM) was 102.59% and the “Toxicity Data, Average, Mean” value (cells (nuclei count); n 9, 25 uM) was 104.38%. For the same molecule, the “Toxicity Data, Average, Mean” value (cells (nuclei count); n 9, 50 uM) was 86.57% and the “Relative cell count to DMSO controls, Average (for correlation analysis)” value (cells (nuclei count)) was 102.48.
